Laboratory results as given in PubChem BioAssay (NCI).
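Abbreviation: GI50, concentration required for 50% inhibition of growth. TGI: total growth inhibition.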

What was measured:
Test in all cases: NCI tumour cell line growth inhibition, 384-well format
[1] = system: 786-0 renal
[2] = system: A498 renal
[3] = system: A549 NSCLC
[4] = system: ACHN renal
[5] = system: BT-549 breast
[6] = system: CAKI-1 renal
[7] = system: CCRF-CEM leukemia
[8] = system: COLO 205 colon
[9] = system: DU-145 prostate
[10] = system: HCC-2998 colon
[11] = system: HCT-116 colon
[12] = system: HCT-15 colon
[13] = system: HL-60(TB) leukemia
[14] = system: HOP-62 NSCLC
[15] = system: HS 578T breast
[16] = system: HT29 colon
[17] = system: IGROV1 ovarian
[18] = system: K-562 leukemia
[19] = system: KM12 colon
[20] = system: LOX IMVI melanoma
[21] = system: M14 melanoma
[22] = system: MALME-3M melanoma
[23] = system: MCF7 breast
[24] = system: MDA-MB-231 breast
[25] = system: MDA-MB-435 melanoma
[26] = system: MDA-MB-468 breast
[27] = system: MOLT-4 leukemia
[28] = system: NCI-H226 lung
[29] = system: NCI-H23 lung
[30] = system: NCI-H322M lung
[31] = system: NCI-H522 lung
[32] = system: NCI/ADR-RES ovarian
[33] = system: OVCAR-3 ovarian
[34] = system: OVCAR-4 ovarian
[35] = system: OVCAR-5 ovarian
[36] = system: OVCAR-8 ovarian
[37] = system: PC-3 prostate
[38] = system: RPMI-8226 leukemia
[39] = system: RXF 393 renal
[40] = system: SF-268 CNS
[41] = system: SF-295 CNS
[42] = system: SF-539 CNS
[43] = system: SK-MEL-2 melanoma
[44] = system: SK-MEL-28 melanoma
[45] = system: SK-MEL-5 melanoma
[46] = system: SK-OV-3 ovarian
[47] = system: SN12C renal
[48] = system: SNB-19 CNS
[49] = system: SNB-75 CNS
[50] = system: SW-620 colon
[51] = system: T-47D breast
[52] = system: TK-10 renal
[53] = system: U251 glioblastoma
[54] = system: UACC-257 melanoma
[55] = system: UACC-62 melanoma
[56] = system: UO-31 renal
[57] = system: EKVX NSCLC
[58] = system: HOP-92 NSCLC
[59] = system: NCI-H460 NSCLC

COc1c(OC[C@H](O)CN2CCOCC2)ccc2c3n(c(=NC(=O)c4cccnc4C)nc12)CCN3
GI50 [1]: > 100 µM
TGI [1]: > 100 µM
GI50 [2]: > 100 µM
TGI [2]: > 100 µM
GI50 [3]: > 100 µM
TGI [3]: > 100 µM
GI50 [4]: > 100 µM
TGI [4]: > 100 µM
GI50 [5]: 38.6 µM
TGI [5]: > 100 µM
GI50 [6]: > 100 µM
TGI [6]: > 100 µM
GI50 [7]: 4.36 µM
TGI [7]: > 100 µM
GI50 [8]: > 100 µM
TGI [8]: > 100 µM
GI50 [9]: > 100 µM
TGI [9]: > 100 µM
GI50 [10]: > 100 µM
TGI [10]: > 100 µM
GI50 [11]: > 100 µM
TGI [11]: > 100 µM
GI50 [12]: > 100 µM
TGI [12]: > 100 µM
GI50 [13]: 0.0145 µM
TGI [13]: > 100 µM
GI50 [14]: > 100 µM
TGI [14]: > 100 µM
GI50 [15]: 3.51 µM
TGI [15]: > 100 µM
GI50 [16]: > 100 µM
TGI [16]: > 100 µM
GI50 [17]: 0.111 µM
TGI [17]: > 100 µM
GI50 [18]: > 100 µM
TGI [18]: > 100 µM
GI50 [19]: > 100 µM
TGI [19]: > 100 µM
GI50 [20]: > 100 µM
TGI [20]: > 100 µM
GI50 [21]: > 100 µM
TGI [21]: > 100 µM
GI50 [22]: > 100 µM
TGI [22]: > 100 µM
GI50 [23]: 0.0879 µM
TGI [23]: > 100 µM
GI50 [24]: > 100 µM
TGI [24]: > 100 µM
GI50 [25]: > 100 µM
TGI [25]: > 100 µM
GI50 [26]: 0.439 µM
TGI [26]: > 100 µM
GI50 [27]: 0.16 µM
TGI [27]: > 100 µM
GI50 [28]: > 100 µM
TGI [28]: > 100 µM
GI50 [29]: > 100 µM
TGI [29]: > 100 µM
GI50 [30]: 67.1 µM
TGI [30]: > 100 µM
GI50 [31]: > 100 µM
TGI [31]: > 100 µM
GI50 [32]: > 100 µM
TGI [32]: > 100 µM
GI50 [33]: > 100 µM
TGI [33]: > 100 µM
GI50 [34]: > 100 µM
TGI [34]: > 100 µM
GI50 [35]: > 100 µM
TGI [35]: > 100 µM
GI50 [36]: > 100 µM
TGI [36]: > 100 µM
GI50 [37]: 0.657 µM
TGI [37]: > 100 µM
GI50 [38]: > 100 µM
TGI [38]: > 100 µM
GI50 [39]: > 100 µM
TGI [39]: > 100 µM
GI50 [40]: > 100 µM
TGI [40]: > 100 µM
GI50 [41]: > 100 µM
TGI [41]: > 100 µM
GI50 [42]: > 100 µM
TGI [42]: > 100 µM
GI50 [43]: > 100 µM
TGI [43]: > 100 µM
GI50 [44]: 55.1 µM
TGI [44]: > 100 µM
GI50 [45]: > 100 µM
TGI [45]: > 100 µM
GI50 [46]: 0.413 µM
TGI [46]: > 100 µM
GI50 [47]: > 100 µM
TGI [47]: > 100 µM
GI50 [48]: > 100 µM
TGI [48]: > 100 µM
GI50 [49]: 0.124 µM
TGI [49]: > 100 µM
GI50 [50]: > 100 µM
TGI [50]: > 100 µM
GI50 [51]: 0.0446 µM
TGI [51]: 0.573 µM
GI50 [52]: 2.86 µM
TGI [52]: > 100 µM
GI50 [53]: > 100 µM
TGI [53]: > 100 µM
GI50 [54]: > 100 µM
TGI [54]: > 100 µM
GI50 [55]: > 100 µM
TGI [55]: > 100 µM
GI50 [56]: > 100 µM
TGI [56]: > 100 µM

CCOC(=O)C(Cc1ccc(CCCC(=O)NCCC(=O)Nc2ccc3nc(C)sc3c2)cc1)C(=O)OCC
GI50 [1]: 26.7 µM
TGI [1]: 75 µM
GI50 [2]: 27.7 µM
TGI [2]: 64.1 µM
GI50 [3]: 23.3 µM
TGI [3]: 59.1 µM
GI50 [4]: 18 µM
TGI [4]: 31.9 µM
GI50 [5]: 19.2 µM
TGI [5]: 33.8 µM
GI50 [6]: 18.4 µM
TGI [6]: 33.1 µM
GI50 [7]: 17.5 µM
TGI [7]: 31.4 µM
GI50 [8]: 21.1 µM
TGI [8]: 40.3 µM
GI50 [9]: 19.8 µM
TGI [9]: 34.9 µM
GI50 [57]: 27.7 µM
TGI [57]: 69.6 µM
GI50 [10]: 10.2 µM
TGI [10]: 35.6 µM
GI50 [11]: 25.9 µM
TGI [11]: 62.8 µM
GI50 [12]: 23.1 µM
TGI [12]: 47.9 µM
GI50 [13]: 23 µM
TGI [13]: 37.6 µM
GI50 [14]: 17.2 µM
TGI [14]: 35.9 µM
GI50 [58]: 25.8 µM
TGI [58]: 68.2 µM
GI50 [15]: 19.8 µM
TGI [15]: 34.5 µM
GI50 [16]: 21.3 µM
TGI [16]: 42.5 µM
GI50 [17]: 26.2 µM
TGI [17]: 51.9 µM
GI50 [18]: 14 µM
TGI [18]: 33.6 µM
GI50 [19]: 18.8 µM
TGI [19]: 37.3 µM
GI50 [20]: 16.8 µM
TGI [20]: 30.8 µM
GI50 [21]: 19.3 µM
TGI [21]: 37 µM
GI50 [22]: 22.5 µM
TGI [22]: 45.7 µM
GI50 [23]: 16.7 µM
TGI [23]: 32.5 µM
GI50 [24]: 21.1 µM
TGI [24]: 48.1 µM
GI50 [25]: 23.5 µM
TGI [25]: 41.2 µM
GI50 [26]: 12 µM
TGI [26]: 25.6 µM
GI50 [27]: 13 µM
TGI [27]: 25.7 µM
GI50 [28]: 17.1 µM
TGI [28]: 32.1 µM
GI50 [29]: 19.7 µM
TGI [29]: 37.2 µM
GI50 [30]: 19.4 µM
TGI [30]: 38.3 µM
GI50 [59]: 19.2 µM
TGI [59]: 35.9 µM
GI50 [31]: 20.5 µM
TGI [31]: 37.1 µM
GI50 [32]: 17.9 µM
TGI [32]: 31.9 µM
GI50 [33]: 21.9 µM
TGI [33]: 40.4 µM
GI50 [34]: 32.5 µM
TGI [34]: 72 µM
GI50 [35]: > 100 µM
TGI [35]: > 100 µM
GI50 [36]: 18.1 µM
TGI [36]: 32 µM
GI50 [37]: 19.4 µM
TGI [37]: 33.9 µM
GI50 [38]: 17.7 µM
TGI [38]: 31.7 µM
GI50 [39]: 21.8 µM
TGI [39]: 48.3 µM
GI50 [40]: 17.7 µM
TGI [40]: 38.3 µM
GI50 [41]: 35.4 µM
TGI [41]: > 100 µM
GI50 [42]: 18.7 µM
TGI [42]: 32.8 µM
GI50 [44]: 26.6 µM
TGI [44]: 51.7 µM
GI50 [45]: 14.1 µM
TGI [45]: 27.1 µM
GI50 [46]: 22.6 µM
TGI [46]: 46.8 µM
GI50 [47]: 24.7 µM
TGI [47]: 48.4 µM
GI50 [48]: 63.1 µM
TGI [48]: > 100 µM
GI50 [49]: 19.7 µM
TGI [49]: 35.8 µM
GI50 [50]: 55.2 µM
TGI [50]: > 100 µM
GI50 [51]: 8.21 µM
TGI [51]: 20.4 µM
GI50 [52]: 30.4 µM
TGI [52]: 83.9 µM
GI50 [53]: 37.6 µM
TGI [53]: > 100 µM
GI50 [54]: 19 µM
TGI [54]: 33.1 µM
GI50 [55]: 19.1 µM
TGI [55]: 33.6 µM
GI50 [56]: 22.9 µM
TGI [56]: 48.7 µM
